Assay results reported in patent US20100069345A1, “Lanthanide-porphyrin complexes as anti-tumor agents” (priority 2005, published 2010).

Columns and labels:
[1] = system: human hepatocellular carcinoma cells (Hep3B); assay: MTT cell viability assay, Hep3B; format: cell-based; settings: 37° C., 48 h, mean ± SD
Description: (§1) Human cervical epitheloid carcinoma cells (HeLa), human hepatocellular carcinoma cells (HepG2 and Hep3B), human breast cancer cells (MCF-7), human coloadenocarcinoma cells (HCT-8), and normal human lung fibroblast cells (CCD-19Lu) were purchased from American Type Culture Collection (ATCC) Rockville, Md., USA. The human hepatocellular cancinoma cells QGY-7703, and the multi-drug resistant cell line QGY-TR50 derived from QGY-7703, were generously provided by Prof. Yong Xie (The Hong Kong University of Science and Technology, Hong Kong PRC). QGY-TR50 cells were isolated and cultured as described (J. Zhou, S. C. Cheng, D. Luo, Y. Xie Biochem. Biophys. Res. Commun. 2001, 280, 1237-1242). Human nasopharyngeal carcinoma cells (SUNE1 and its cisplatin-resistant variant—CNE2) were derived from poorly differentiated NPC in Chinese patients and were generously provided by Dr. S. W. Tsao (The University of Hong Kong, Hong Kong PRC). Cell culture flasks and 96-well microtitre plates were from Nalge Nunc Int. Culture medium, other medium constituents and phosphate buffer saline (PBS) were obtained by Gibco BRL Rockville, Md., USA. Cell Proliferation kit I (MTT) was purchased from Roche. Mannheim, Germany.

PARP = assay: Western blotting analysis, PARP; format: cell-based, human; settings: HeLa, 2 μM, after the treatment
Description: (§2) Cells were washed in cold phosphate-buffered saline (PBS) at 4° C. and lysed in a buffer containing 0.05 M Tis.HCl (pH 7.5), 0.25 M NaCl, 0.005 M EDTA, 0.05 M NaF, 1 mM DTT and 1% Triton. Cell lysates were collected and the protein concentration of cell lysates was measured using a Protein detection kit (Bio-Rad). Equal amount of proteins was resolved in a 12% SDS-PAGE gel and transferred onto nitrocellulose membranes. The membrane was blocked with a blocking solution (1×TBS, 0.1% Tween-20 with 5% non-fat dry milk) at room temperature for 1 h, and washed three times with washing buffer (1×TBS, 0.1% Tween-20) for 5 min each. The membrane was then incubated with primary antibody (Caspase 3, Bid, PARP and β-Actin respectively) for overnight at 4° C. The membrane was washed three times with washing buffer for 5 min each before incubation with the corresponding secondary antibody (horse anti-mouse IgG or goat anti-rabbit IgG). Membrane was washed again and signals were detected using an ECL detection kit (Amersham Pharmacia Biotech) followed by the exposure to X-ray films (Fujifilm).
(§3) After treatment with complex 1 for different time intervals, the expressions of caspase 3, Bid and PARP were detected by the Western blotting analysis. […] Moreover, treatment with complex 1 leads to a reduction in the level of un-cleaved Bid.

Bid = assay: Western blotting analysis, Bid; format: cell-based, human; settings: HeLa, 2 μM, 32 h
Description: as §2, §3

[2] = system: human breast cancer cells (MCF-7); assay: MTT cell viability assay, MCF-7; format: cell-based
Description: as §1

LC3 = assay: Subcellular distribution of GFP-LC3; format: cell-based, human; settings: HeLa transfected with GFP-LC3, 1 μM, 1-4 hours
Description: Subcellular Distribution of LC3. HeLa cells were transiently transfected with a plasmid expressing green fluorescent protein-tagged LC3 (GFP-LC3) using GeneJuice (Novagen, USA). After overnight incubation, HeLa cells were treated 1 (1 μM) for 1, 2, 3, and 4 hours respectively. Green fluorescence of GFP-LC3 was examined under the Olympus IX71 microscope (Melville, N.Y.). Images were captured with CCD digital camera RT COLOR, Spot (Diagnostic Instruments, Inc., Melville, N.Y.).
The redistribution of microtubule-associated protein 1 light chain 3 (LC3) was also examined. LC3 is a maker of autophagosomes in mammalian cells which the localization changes from a diffuse cytosolic pattern to a punctuate pattern representing its recruitment to the autophagosomal membrane during the induction of autophagy. HeLa cells were transfected with plasmid encoded a fusion protein of GFP and LC3 (GFP-LC3), so that the cellular trafficking of LC3 can be directly visualized by live fluorescence microscopy.

[3] = system: human hepatocellular cancinoma cells QGY-7703; assay: MTT cell viability assay, QGY-7703; format: cell-based
Description: as §1

[4] = system: human cervical epitheloid carcinoma cells (HeLa); assay: MTT cell viability assay, HeLa; format: cell-based
Description: as §1

[5] = system: different human liver carcinoma cells; assay: Cytotoxicity toward different human liver carcinoma cells; format: cell-based; settings: treatment for 48 h
Description: as §1

[6] = system: multi-drug resistant cell line QGY-TR50; assay: MTT cell viability assay, QGY-TR50; format: cell-based, human
Description: as §1

[7] = system: human nasopharyngeal carcinoma cells (SUNE1); assay: MTT cell viability assay, SUNE1; format: cell-based
Description: as §1

HeLa cells = assay: Transmission electron microscopy of autophagic cells; format: cell-based, human; settings: 1 μM, 2 h
Description: Transmission Electron Microscopy. HeLa cells (12×10^4) were seeded on 60 mm plate. Cells were treated with 1 (1 μM) for 2 h, respectively. Cells were then trypsinized, washed twice with PBS and fixed with ice-cold glutaraldehyde (2.5% in 0.1 M cacodylate buffer, pH 7.4) for 30 min. After primary fixation, cells were washed with cacodylate buffer, post-fixed with 1% osmium tetraoxide for 30 min. Osmium tetraoxide was removed and the cell pellet was washed with cacodylate buffer. Pre-warmed gelatin was added to the cell pellet and immediately centrifuged at 2500 rpm for 5 min. The gelatin was dehydrated by immersing in 30% EtOH, 50% EtOH, 70% EtOH once, and in 90% EtOH twice for 5 min and finally in absolutely EtOH for 10 min for three times. The dehydrated sample was washed with propylene oxide twice for 5 min and then immersed in propylene oxide:resin (1:1) for overnight. The sample was immersed in pure resin for 30 min before embedded in Polybed. Specimens were examined using 208S Philips transmission electron microscopy.
Cells treated with 1 were subjected to transmission electron microscopic analysis.

[8] = Stability by UV-visible in presence of reduced glutathione; format: physicochemical; settings: 6 mM GSH in DMSO/Tris buffer solution (1:9)
Description: Moreover, concomitant band broadening in spectrum of complex 1 was observed after 24 h. No significant spectral shift and formation of new absorption band were observed. […] Comparing with the spectra of complex 1, the decrease in Soret band intensity of complex 2b is less significant. The intensities are only found to decrease in 2% and 19% after 2 h and 24 h, respectively. Also, there is no significant spectral shift and formation of new absorption band were observed (FIG. 8).

[9] = system: normal human lung fibroblast cells (CCD-19Lu); assay: MTT cell viability assay, CCD-19Lu; format: cell-based
Description: as §1

[10] = IC50 of cisplatin divided by IC50 of complex

What does the source list for [Yb2(OEP)2](μ-OH)2 [Complex 1]?
IC50 [1]: 780 ± 60 nM; level of cleaved PARP (85 kDa) (PARP): gradual increase; expression of Bid (Bid): decrease dramatically; IC50 ratio cisplatin/complex, MCF-7 [2, 10]: 63.89; IC50 ([2]; MTT, 37° C., 48 h, mean ± SD): 550 nM; cytotoxic activity toward breast cancer cell line (MCF-7), times higher than that of cisplatin ([2]; compared with cisplatin): 60 times; redistribution of GFP-LC3 (LC3): time-dependent increase in punctuated green fluorescence; IC50 ratio cisplatin/complex, QGY-7703 [3, 10]: 763; IC50 ([3]; MTT, 37° C., 48 h, mean ± SD): 60 nM; times more effective than cisplatin in eradicating QGY-7703 human liver cancer cell line ([3]; compared with cisplatin): 760 times; IC50 ratio cisplatin/complex, HeLa [4, 10]: 30.2; IC50 ([4]; MTT, 37° C., 48 h, mean ± SD of three experiments): 470 ± 300 nM; IC50 [5]: 60 to 780 nM; IC50 ratio cisplatin/complex, QGY-TR50 [6, 10]: 60.3; IC50 ([6]; MTT, 37° C., 48 h, mean ± SD): 540 nM; IC50 ratio cisplatin/complex, SUNE1 [7, 10]: 4.8; IC50 ([7]; MTT, 37° C., 48 h, mean ± SD): 2450 nM; autophagic vacuoles by transmission electron microscopy (HeLa cells): vesicular structures reminiscence of autophagic vacuoles; decrease in Soret band intensity, reduced glutathione, 2 h ([8]; 2 h): 7%; decrease in Soret band intensity, reduced glutathione, 24 h ([8]; 24 h): 52%; IC50 ratio cisplatin/complex, CCD-19Lu [9, 10]: 16.8; IC50 ([9]; MTT, 37° C., 48 h, mean ± SD): 5.4 ± 6.8 µM
